Reference: ChEMBL document CHEMBL4840370, “Irilone, a Red Clover Isoflavone, Combined with Progesterone Enhances PR Signaling through the Estrogen and Glucocorticoid Receptors” (J Nat Prod, 2021)
The source made the active and inactive calls. No cut-off for these calls is given here.

Tests used:
[1] = Induction of epithelial cells proliferation in uterus of ovariectomized CD-1 mouse at 4 mg/kg, ip administered once a day for 7 days in presence of progesterone and measured on day 7 at 6 hrs post-last dosage by PCNA staining based immunohistochemistry (reference value: 7%); type: organism-based; details: in vivo, 168 h, time 7 day
T47D [2] = test: Effect on PR-B phosphorylation at Ser294 residue in human T47D cells at 10 uM incubated for 60 mins by western blot analysis; type: functional, cell-based
[3] = target: T1, Estrogen receptor (Homo sapiens) (UniProt P03372); test: Induction of estrogen receptor in human T47D cells assessed as increase in HRE-luc activity at 10 uM measured after 24 hrs by HRE-dependent dual luciferase reporter gene assay relative to control; type: cell-based; details: filed as activator
T1 sequence (whole entry): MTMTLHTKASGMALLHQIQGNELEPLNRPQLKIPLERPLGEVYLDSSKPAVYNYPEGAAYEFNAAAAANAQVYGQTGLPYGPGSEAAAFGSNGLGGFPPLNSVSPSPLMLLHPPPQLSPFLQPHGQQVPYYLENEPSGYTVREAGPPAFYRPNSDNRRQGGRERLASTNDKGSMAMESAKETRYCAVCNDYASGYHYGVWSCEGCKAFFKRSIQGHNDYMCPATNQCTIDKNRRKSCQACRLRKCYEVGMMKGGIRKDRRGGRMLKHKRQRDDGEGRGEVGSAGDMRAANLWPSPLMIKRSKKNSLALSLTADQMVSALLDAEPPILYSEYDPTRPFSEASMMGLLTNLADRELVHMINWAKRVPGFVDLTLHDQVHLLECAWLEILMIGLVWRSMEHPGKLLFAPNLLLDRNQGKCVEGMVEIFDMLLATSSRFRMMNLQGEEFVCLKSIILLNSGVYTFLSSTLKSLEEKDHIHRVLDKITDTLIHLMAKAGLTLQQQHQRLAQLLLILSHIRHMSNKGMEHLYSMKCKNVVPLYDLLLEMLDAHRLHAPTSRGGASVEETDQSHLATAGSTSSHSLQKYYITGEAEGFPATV

T47D [4] = test: Effect on PR-A phosphorylation at Ser294 residue in human T47D cells at 10 uM incubated for 60 mins by western blot analysis; type: functional, cell-based
Ishikawa [5] = test: Increase in GR protein expression in human Ishikawa PR-B cells at 10 uM incubated for 24 hrs by western blot analysis; type: functional, cell-based
Ishikawa [6] = test: Increase in PR-A protein expression in human Ishikawa PR-B cells at 10 uM incubated for 24 hrs in presence of 100 nM progesterone by western blot analysis; type: functional, cell-based
[7] = target: T1, Estrogen receptor (Homo sapiens); test: Induction of estrogen receptor in human T47D cells assessed as increase in PR-A protein expression at 10 uM incubated for 24 hrs by western blot analysis; type: cell-based; details: filed as activator
Ishikawa [8] = test: Increase in PR-B protein expression in human Ishikawa PR-B cells at 10 uM incubated for 24 hrs in presence of 100 nM progesterone by western blot analysis; type: functional, cell-based
[9] = target: T1, Estrogen receptor (Homo sapiens); test: Induction of estrogen receptor in human T47D cells assessed as increase in PR-B protein expression at 10 uM incubated for 24 hrs in presence of progesterone by western blot analysis; type: cell-based
[10] = target: T2, Glucocorticoid receptor (Homo sapiens) (UniProt P04150); test: Agonist activity at GR in human OVCAR-5 cells assessed as induction of HRE/Luc activity at 1 to 10 uM incubated for 24 hrs by luciferase reporter gene assay; type: cell-based; details: dose 1-10 µM
T2 sequence (whole entry): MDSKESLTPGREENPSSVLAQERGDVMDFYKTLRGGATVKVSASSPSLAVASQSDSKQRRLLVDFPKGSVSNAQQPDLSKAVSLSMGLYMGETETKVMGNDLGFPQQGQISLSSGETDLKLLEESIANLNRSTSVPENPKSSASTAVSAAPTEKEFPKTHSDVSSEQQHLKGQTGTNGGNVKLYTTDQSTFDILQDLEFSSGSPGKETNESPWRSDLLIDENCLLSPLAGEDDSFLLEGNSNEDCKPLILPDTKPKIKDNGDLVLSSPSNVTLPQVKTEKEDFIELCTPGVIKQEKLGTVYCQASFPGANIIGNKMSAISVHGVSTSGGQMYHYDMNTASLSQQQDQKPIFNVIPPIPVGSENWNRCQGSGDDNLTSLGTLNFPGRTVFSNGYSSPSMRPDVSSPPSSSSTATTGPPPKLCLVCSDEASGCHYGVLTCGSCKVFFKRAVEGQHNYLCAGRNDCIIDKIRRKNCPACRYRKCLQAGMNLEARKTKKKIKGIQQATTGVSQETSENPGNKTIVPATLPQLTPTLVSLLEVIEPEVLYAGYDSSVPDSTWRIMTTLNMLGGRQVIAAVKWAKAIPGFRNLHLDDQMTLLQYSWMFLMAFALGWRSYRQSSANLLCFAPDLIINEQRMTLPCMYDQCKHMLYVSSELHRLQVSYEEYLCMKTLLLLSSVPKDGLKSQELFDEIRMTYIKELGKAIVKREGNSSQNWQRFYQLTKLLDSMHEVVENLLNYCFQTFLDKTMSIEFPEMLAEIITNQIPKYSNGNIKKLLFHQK

Ishikawa [11] = test: Induction of HRE/Luc activity in human Ishikawa null cells at 10 uM incubated for 24 hrs in presence of progesterone by luciferase reporter gene assay; type: functional, cell-based
Ishikawa [12] = test: Decrease in PR-A protein expression in human Ishikawa PR-B cells at 10 uM incubated for 24 hrs in presence of 100 nM progesterone by western blot analysis; type: functional, cell-based
T47D [13] = test: Effect on R5020-induced PR-B phosphorylation at Ser294 residue in human T47D cells at 10 uM incubated for 60 mins by western blot analysis; type: functional, cell-based
[14] = target: T1, Estrogen receptor (Homo sapiens); test: Induction of estrogen receptor in human T47D cells assessed as increase in ERE/Luc activity at 10 uM measured after 24 hrs by luciferase reporter gene assay relative to control; type: cell-based; details: filed as activator
[15] = target: T2, Glucocorticoid receptor (Homo sapiens); test: Induction of glucocorticoid receptor in human Ishikawa PR-B cells assessed as increase in HRE-luc activity at 10 uM measured after 24 hrs by HRE-dependent dual luciferase reporter gene assay relative to control; type: cell-based; details: filed as activator
[16] = target: T1, Estrogen receptor (Homo sapiens); test: Induction of estrogen receptor in human T47D cells assessed as potentiation of progesterone transcriptional activity by measuring increase in HRE-Luc activity at 10 uM measured after 24 hrs in presence of 5 nM progesterone by HRE-dependent dual luciferase reporter gene assay; type: cell-based; details: filed as activator
Ishikawa [17] = test: Effect on PR-B protein expression in human Ishikawa PR-B cells at 10 uM incubated for 24 hrs by western blot analysis; type: functional, cell-based
Ishikawa [18] = test: Potentiation of progesterone signalling in human Ishikawa null cells transfected with wild type PR assessed as induction of HRE/uc activity at 10 uM incubated for 24 hrs in presence of progesterone by luciferase reporter gene assay relative to control; type: functional
Ishikawa [19] = test: Potentiation of progesterone receptor signalling in human Ishikawa null cells transfected with wild type PR assessed as induction of HRE/uc activity at 10 uM incubated for 24 hrs by luciferase reporter gene assay relative to control; type: functional
Ishikawa [20] = test: Decrease in PR-B protein expression in human Ishikawa PR-B cells at 10 uM incubated for 24 hrs in presence of 100 nM progesterone by western blot analysis; type: functional, cell-based
[21] = target: T2, Glucocorticoid receptor (Homo sapiens); test: Induction of glucocorticoid receptor in human Ishikawa PR-B cells assessed as potentiation of progesterone transcriptional activity by measuring increase in HRE-Luc activity at 10 uM measured after 24 hrs in presence of 5 to 100 nM progesterone by HRE-dependent dual luciferase reporter gene assay; type: cell-based; details: filed as activator
OVCAR-5 [22] = test: Repression of dexamethasone-induced HRE/Luc activity in human OVCAR-5 cells at 10 uM incubated for 24 hrs by luciferase reporter gene assay; type: functional
[23] = target: T1, Estrogen receptor (Homo sapiens); test: Induction of estrogen receptor in human T47D cells assessed as increase in PR-A protein expression at 10 uM incubated for 24 hrs in presence of progesterone by western blot analysis; type: cell-based
[24] = target: T2, Glucocorticoid receptor (Homo sapiens); test: Induction of glucocorticoid receptor in human Ishikawa PR-B cells transfected with scrambled siRNA assessed as potentiation of progesterone signalling by measuring increase in HRE/Luc activity at 10 uM incubated for 24 hrs in presence of progesterone by luciferase reporter gene assay relative to control; type: cell-based; details: filed as activator
Mus musculus = test: In vivo potentiation of progesterone signalling in ovariectomized CD-1 mouse assessed as increase in FKBP5 expression in reproductive tract at 4 mg/kg, ip administered once a day for 7 days in presence of progesterone and measured on day 7 at 6 hrs post-last dosage by immunohistochemistry; type: functional, organism-based; details: time 7.0 day
[25] = target: T1, Estrogen receptor (Homo sapiens); test: Induction of estrogen receptor in human T47D cells assessed as increase in PR-B protein expression at 10 uM incubated for 24 hrs in presence of SERM, 4-OH-TAM and progesterone by western blot analysis; type: cell-based
Ishikawa [26] = test: Effect on PR-A protein expression in human Ishikawa PR-B cells at 10 uM incubated for 24 hrs by western blot analysis; type: functional, cell-based
Ishikawa [27] = test: Induction of HRE/Luc activity in human Ishikawa null cells at 10 uM incubated for 24 hrs by luciferase reporter gene assay; type: functional, cell-based
[28] = Induction of HRE/Luc activity in human Ishikawa PR-B cells transfected with GR siRNA at 10 uM incubated for 24 hrs in presence of progesterone by luciferase reporter gene assay relative to control; type: functional
OVCAR-5 [29] = test: Increase in GR protein expression in human OVCAR-5 cells at 10 uM incubated for 24 hrs by western blot analysis; type: functional, cell-based
[30] = Induction of epithelial cells proliferation in uterus of ovariectomized CD-1 mouse at 4 mg/kg, ip administered once a day for 7 days and measured on day 7 at 6 hrs post-last dosage by PCNA staining based immunohistochemistry (reference value: 33.3%); type: organism-based; details: in vivo, 168 h, time 7 day
T47D [31] = test: Effect on R5020-induced PR-A phosphorylation at Ser294 residue in human T47D cells at 10 uM incubated for 60 mins by western blot analysis; type: functional, cell-based
OVCAR-5 [32] = test: Repression of dexamethasone-induced HRE/Luc activity in human OVCAR-5 cells at 1 to 5 uM incubated for 24 hrs by luciferase reporter gene assay; type: functional, cell-based; details: dose 1-5 µM
[33] = target: T1, Estrogen receptor (Homo sapiens); test: Induction of estrogen receptor in human T47D cells assessed as increase in PR-B protein expression at 10 uM incubated for 24 hrs by western blot analysis; type: cell-based; details: filed as activator
[34] = target: T1, Estrogen receptor (Homo sapiens); test: Induction of estrogen receptor in human T47D cells assessed as increase in PR-A protein expression at 10 uM incubated for 24 hrs in presence of SERM, 4-OH-TAM by western blot analysis; type: cell-based
[35] = target: T1, Estrogen receptor (Homo sapiens); test: Induction of estrogen receptor in human T47D cells assessed as increase in PR-B protein expression at 10 uM incubated for 24 hrs in presence of SERM, 4-OH-TAM by western blot analysis; type: cell-based
[36] = target: T1, Estrogen receptor (Homo sapiens); test: Induction of estrogen receptor in human T47D cells assessed as increase in PR-A protein expression at 10 uM incubated for 24 hrs in presence of SERM, 4-OH-TAM and progesterone by western blot analysis; type: cell-based

With `O=c1c(-c2ccc(O)cc2)coc2cc3c(c(O)c12)OCO3` the Activity [1] was 0.93%, the Activity (T47D [2]) was “inactive” and the fold change (FC) [3] was 1.07. For the same compound, the Activity (T47D [4]) was “inactive”, the Activity (Ishikawa [5]) was “Active” and the Activity (Ishikawa [6]) was “inactive”. The Activity [7] was “Active”, the Activity (Ishikawa [8]) was “inactive” and the Activity [9] was “inactive”. The Activity [10] was “inactive”, the Activity (Ishikawa [11]) was “inactive” and the inhibition (Ishikawa [12]) was “inactive”. For the same compound, the Activity (T47D [13]) was “inactive”, the fold change (FC) [14] was 4 and the fold change (FC) [15] was 1.2. For the same compound, the Activity [16] was “Active”, the Activity (Ishikawa [17]) was “inactive” and the “fold change (FC)” value (Ishikawa [18]) was 38. For the same compound, the “fold change (FC)” value (Ishikawa [19]) was 5.8, the inhibition (Ishikawa [20]) was “inactive” and the Activity [21] was “Active”. For the same compound, the inhibition at 10 µM (OVCAR-5 [22]) was 22%, the Activity [23] was “inactive” and the fold change (FC) [24] was 44. For the same compound, the Activity (Mus musculus) was “inactive”, the Activity [25] was “inactive” and the Activity (Ishikawa [26]) was “inactive”. For the same compound, the Activity (Ishikawa [27]) was “inactive”, the “fold change (FC)” value [28] was 30 and the Activity (OVCAR-5 [29]) was “inactive”. The Activity [30] was 18.4%, the Activity (T47D [31]) was “inactive” and the inhibition (OVCAR-5 [32]) was “inactive”. For the same compound, the Activity [33] was “Active”, the Activity [34] was “inactive” and the Activity [35] was “inactive”. The Activity [36] was “inactive”.
